ChEMBL document CHEMBL3885861, “Open TG-GATES”

Organism: Rattus norvegicus
Experiment: Open TG-GATES - Regimen: Single
Type: toxicity, organism-based, Sprague-Dawley
Design: regimen Single, gender Male, age 6 weeks
Conditions: in vivo, po, route gavage; for gamma-GTP / ALP / AST / CRE / DBIL / GLC / IP / K / LDH / Na / PL / RALB / TBIL / TC / TP: tissue Plasma; for Bas / Eos / Lym / MCHC / MCV / Mono / Neu / RBC / Ret / WBC: tissue Blood; for KIDNEY_L / KIDNEY_R / KIDNEY_TOTAL: tissue Kidney; for LIVER: tissue Liver
[1] = 200 mg/kg, 3 h, dose level Middle
[2] = 200 mg/kg, 6 h, dose level Middle
[3] = 200 mg/kg, 9 h, dose level Middle
[4] = 200 mg/kg, 24 h, dose level Middle
[5] = 600 mg/kg, 3 h, dose level High
[6] = 600 mg/kg, 6 h, dose level High
[7] = 600 mg/kg, 9 h, dose level High
[8] = 600 mg/kg, 24 h, dose level High

CS(=O)(=O)O.Cc1ccc(NC(=O)c2ccc(CN3CCN(C)CC3)cc2)cc1Nc1nccc(-c2cccnc2)n1 [IMATINIB MESYLATE]
gamma-GTP (60 mg/kg, 24 h, dose level Low): 0.9 IU/L | Bas [1]: 0% | Eos [1]: 0.6% | Lym [1]: 76.2% | MCHC [1]: 32.5% | MCV [1]: 63 fL | Mono [1]: 2.4% | Neu [1]: 19.8% | RBC [1]: 602.4 x10_4/ul | Ret [1]: 10.1% | WBC [1]: 94 x10_2/uL | KIDNEY_L [1]: 0.8 g | KIDNEY_R [1]: 0.9 g | KIDNEY_TOTAL [1]: 1.7 g | LIVER [1]: 8.5 g | ALP [1]: 1473.2 IU/L | AST [1]: 86.2 IU/L | CRE [1]: 0.2 mg/dL | DBIL [1]: 0.014 mg/dL | GLC [1]: 185 mg/dL | IP [1]: 8.5 mg/dL | K [1]: 3.9 meq/L | LDH [1]: 224.6 IU/L | Na [1]: 142.7 meq/L | PL [1]: 131.8 mg/dL | RALB [1]: 4 g/dL | TBIL [1]: 0.042 mg/dL | TC [1]: 75.8 mg/dL | TP [1]: 5.4 g/dL | gamma-GTP [1]: 0.8 IU/L | Bas [2]: 0% | Eos [2]: 0% | Lym [2]: 75.8% | MCHC [2]: 32.7% | MCV [2]: 63 fL | Mono [2]: 1.8% | Neu [2]: 21.6% | RBC [2]: 605.6 x10_4/ul | Ret [2]: 9.4% | WBC [2]: 92.8 x10_2/uL | KIDNEY_L [2]: 0.9 g | KIDNEY_R [2]: 0.9 g | KIDNEY_TOTAL [2]: 1.8 g | LIVER [2]: 8.3 g | ALP [2]: 1397.4 IU/L | AST [2]: 83.8 IU/L | CRE [2]: 0.2 mg/dL | DBIL [2]: 0.014 mg/dL | GLC [2]: 184.2 mg/dL | IP [2]: 9.1 mg/dL | K [2]: 3.8 meq/L | LDH [2]: 187.4 IU/L | Na [2]: 139.7 meq/L | PL [2]: 147.6 mg/dL | RALB [2]: 4 g/dL | TBIL [2]: 0.046 mg/dL | TC [2]: 81.6 mg/dL | TP [2]: 5.4 g/dL | gamma-GTP [2]: 0.8 IU/L | Bas [3]: 0% | Eos [3]: 0% | Lym [3]: 78.6% | MCHC [3]: 33.1% | MCV [3]: 64.1 fL | Mono [3]: 1% | Neu [3]: 19.2% | RBC [3]: 566.4 x10_4/ul | Ret [3]: 10.1% | KIDNEY_L [3]: 0.9 g | KIDNEY_R [3]: 0.9 g | KIDNEY_TOTAL [3]: 1.8 g | LIVER [3]: 7.8 g | ALP [3]: 1450.6 IU/L | AST [3]: 80.6 IU/L | CRE [3]: 0.2 mg/dL | DBIL [3]: 0.016 mg/dL | GLC [3]: 180 mg/dL | IP [3]: 9 mg/dL | K [3]: 4 meq/L | LDH [3]: 197.8 IU/L | Na [3]: 139.8 meq/L | PL [3]: 145.8 mg/dL | RALB [3]: 4.2 g/dL | TBIL [3]: 0.062 mg/dL | TC [3]: 82.6 mg/dL | TP [3]: 5.5 g/dL | gamma-GTP [3]: 0.9 IU/L | Bas [4]: 0% | Eos [4]: 0.6% | Lym [4]: 81% | MCHC [4]: 33% | MCV [4]: 63.9 fL | Mono [4]: 1.2% | Neu [4]: 16.2% | RBC [4]: 583.2 x10_4/ul | Ret [4]: 7.9% | WBC [4]: 97.7 x10_2/uL | KIDNEY_L [4]: 0.9 g | KIDNEY_R [4]: 0.9 g | KIDNEY_TOTAL [4]: 1.8 g | LIVER [4]: 8.6 g | ALP [4]: 1768.2 IU/L | AST [4]: 98.4 IU/L | CRE [4]: 0.2 mg/dL | DBIL [4]: 0.008 mg/dL | GLC [4]: 180.4 mg/dL | IP [4]: 7.5 mg/dL | K [4]: 4 meq/L | LDH [4]: 181.8 IU/L | Na [4]: 143 meq/L | PL [4]: 148.4 mg/dL | RALB [4]: 4.1 g/dL | TBIL [4]: 0.042 mg/dL | TC [4]: 79 mg/dL | TP [4]: 5.8 g/dL | gamma-GTP [4]: 0.8 IU/L | Bas [5]: 0% | Eos [5]: 1% | Lym [5]: 74.2% | MCHC [5]: 32.7% | MCV [5]: 63.3 fL | Mono [5]: 2.6% | Neu [5]: 22.2% | RBC [5]: 595.8 x10_4/ul | Ret [5]: 9.3% | WBC [5]: 88.6 x10_2/uL | KIDNEY_L [5]: 0.9 g | KIDNEY_R [5]: 0.9 g | KIDNEY_TOTAL [5]: 1.8 g | LIVER [5]: 8.9 g | ALP [5]: 1505 IU/L | AST [5]: 86 IU/L | CRE [5]: 0.2 mg/dL | DBIL [5]: 0.01 mg/dL | GLC [5]: 185.4 mg/dL | IP [5]: 9 mg/dL | K [5]: 3.9 meq/L | LDH [5]: 244.6 IU/L | Na [5]: 143.3 meq/L | PL [5]: 138.4 mg/dL | RALB [5]: 4.2 g/dL | TBIL [5]: 0.044 mg/dL | TC [5]: 79 mg/dL | TP [5]: 5.6 g/dL | gamma-GTP [5]: 0.8 IU/L | Bas [6]: 0% | Eos [6]: 0.8% | Lym [6]: 67.8% | MCHC [6]: 33.1% | MCV [6]: 63.5 fL | Mono [6]: 1.6% | Neu [6]: 28.6% | RBC [6]: 589.6 x10_4/ul | Ret [6]: 8.9% | WBC [6]: 104.9 x10_2/uL | KIDNEY_L [6]: 0.9 g | KIDNEY_R [6]: 0.9 g | KIDNEY_TOTAL [6]: 1.8 g | LIVER [6]: 7.9 g | ALP [6]: 1661.2 IU/L | AST [6]: 88.2 IU/L | CRE [6]: 0.2 mg/dL | DBIL [6]: 0.016 mg/dL | GLC [6]: 180.4 mg/dL | IP [6]: 8.9 mg/dL | K [6]: 3.9 meq/L | LDH [6]: 553.8 IU/L | Na [6]: 140 meq/L | PL [6]: 159.4 mg/dL | RALB [6]: 4.1 g/dL | TBIL [6]: 0.048 mg/dL | TC [6]: 91.6 mg/dL | TP [6]: 5.3 g/dL | gamma-GTP [6]: 0.8 IU/L | Bas [7]: 0% | Eos [7]: 0% | Lym [7]: 72.2% | MCHC [7]: 32.6% | MCV [7]: 63.6 fL | Mono [7]: 1.6% | Neu [7]: 25.2% | RBC [7]: 592.6 x10_4/ul | Ret [7]: 9.7% | KIDNEY_L [7]: 0.9 g | KIDNEY_R [7]: 0.9 g | KIDNEY_TOTAL [7]: 1.8 g | LIVER [7]: 7.8 g | ALP [7]: 1627 IU/L | AST [7]: 85 IU/L | CRE [7]: 0.2 mg/dL | DBIL [7]: 0.016 mg/dL | GLC [7]: 183.2 mg/dL | IP [7]: 8.8 mg/dL | K [7]: 3.8 meq/L | LDH [7]: 180.8 IU/L | Na [7]: 140.1 meq/L | PL [7]: 140.8 mg/dL | RALB [7]: 4.2 g/dL | TBIL [7]: 0.054 mg/dL | TC [7]: 78 mg/dL | TP [7]: 5.5 g/dL | gamma-GTP [7]: 0.8 IU/L | Bas [8]: 0% | Eos [8]: 0.8% | Lym [8]: 76.4% | MCHC [8]: 33.1% | MCV [8]: 62.5 fL | Mono [8]: 2% | Neu [8]: 20.4% | RBC [8]: 584.2 x10_4/ul | Ret [8]: 7.5% | WBC [8]: 80.4 x10_2/uL | KIDNEY_L [8]: 0.9 g | KIDNEY_R [8]: 0.9 g | KIDNEY_TOTAL [8]: 1.9 g | LIVER [8]: 7.8 g | ALP [8]: 1838.6 IU/L | AST [8]: 118.4 IU/L | CRE [8]: 0.2 mg/dL | DBIL [8]: 0.016 mg/dL | GLC [8]: 175.2 mg/dL | IP [8]: 7.8 mg/dL | K [8]: 4.1 meq/L | LDH [8]: 227.6 IU/L | Na [8]: 141.8 meq/L | PL [8]: 131.4 mg/dL | RALB [8]: 4 g/dL | TBIL [8]: 0.072 mg/dL | TC [8]: 72.6 mg/dL | TP [8]: 5.6 g/dL | gamma-GTP [8]: 0.9 IU/L
